Experimental data: article PMC3462775 (PLoS ONE, 2012)
In brackets after ≈: the same amount, converted by molar mass. Bridge positions count the residues as written; N and C are the ends. Square brackets hold non-standard residues; d marks the D form. Peptide text beside a SMILES is read from it. I, II: the chains in the order shown. βAla = NCCC(=O)O

Experiments:
S.epidermidis 6154 = type: cell-based, Staphylococcus epidermidis
Experimental: (§1) MICs were determined using a standard microdilution assay as recommended by the Clinical and Laboratory Standards Institute. Assays were performed in triplicate using cation-supplemented Mueller-Hinton (MH) broth (Becton Dickinson, Franklin Lakes, NJ, USA) and a bacterial inoculum of 5x10^4 CFU/well, in a final volume of 100 µl. The tested concentrations ranged from 0.1 µM to 24 µM for both peptides. Results were recorded after 18–20 h of incubation at 37°C.

S. aureus USA300 = experiment: In vivo anti-MRSA activity, lethal i.p. infection of mice; conditions: Balb-c mice (20 g), groups of 5, i.p. LD100 (1×10^6) S. aureus USA 300 in 7% mucin, single i.p. peptide 25 mg/kg 30 min later; for survival: after 7 days
Experimental: The smallest number of bacteria causing 100% lethal infection (LD100) after intra-peritoneal (i.p.) injection was 1×10^6 in the presence of 7% mucin. An LD100 killed mice within 20 hours. Mice were infected with the LD100 of bacteria and treated i.p. with the peptides 30 minutes later.
Figure 4 In vivo antibacterial activity of tetrabranched M33-L and M33-D peptides. Balb-c mice (20 g) were injected i.p. with a lethal amount of S. aureus USA300 cells. Dashed line (Ctr), injection with bacteria and no peptides; dotted line, injection with bacteria and a single injection of M33-L peptide (25 mg/kg) 30 min later; continuous line, injection with bacteria and a single injection of M33-D peptide (25 mg/kg) 30 min later.
Animal procedures were approved by the Ethical Committee of the Azienda Ospedaliera Universitaria Senese on November 18, 2010. Balb-c mice (20 g) were infected i.p. with lethal amounts of bacteria (see results) mixed in 500 µl PBS +7% mucin (mucin from porcine stomach, type II, Sigma-Aldrich). Bacteria were cultured overnight, centrifuged, mixed in sterile PBS, and measured by spectrophotometer. Possible further dilutions in PBS were sometimes necessary to obtain the right amount of bacteria. Groups consisted of 5 animals. Moribund animals were killed humanely to avoid unnecessary distress. Surviving mice were monitored for 7 days. Thirty minutes after bacterial administration, peptides were inoculated i.p. with 0.5 ml PBS solution containing the indicated amount of peptide (see Results). Control animals received only PBS. P values were calculated using GraphPad Prism software.

K.pneumoniae ATCC 13833 = experiment: MIC, standard microdilution assay; type: cell-based, Klebsiella pneumoniae; conditions: Reference strain, wild type; CLSI microdilution, cation-supplemented Mueller-Hinton broth, 5x10^4 CFU/well, 18–20 h at 37°C, triplicate
Experimental: as §1

E.coli ATCC 25922 = experiment: MIC, standard microdilution assay; type: cell-based, Escherichia coli; conditions: Reference strain, wild type; CLSI microdilution, cation-supplemented Mueller-Hinton broth, 5x10^4 CFU/well, 18–20 h at 37°C, triplicate
Experimental: as §1

P.aeruginosa AV 65 = type: cell-based, Pseudomonas aeruginosa
Experimental: as §1

E.coli W03BG0025 = type: cell-based, Escherichia coli
Experimental: as §1

S.aureus 3851 = type: cell-based, Staphylococcus aureus
Experimental: as §1

S.aureus USA 300 = type: cell-based, Staphylococcus aureus
Experimental: as §1

[1] = test system: P. aeruginosa ATCC 27853 biofilm; type: cell-based, Pseudomonas aeruginosa; conditions: ATCC 27853, 2 h
Experimental: Biofilm formation was performed by adapting the procedure described in [39] using the Calgary Biofilm Device (Innovotech, Innovotech Inc. Edmonton, Canada). Briefly, 96-well plates containing the bacterial inoculum were sealed with lids bearing 96 pegs on which the biofilm could build up. The plates were placed in an orbital incubator at 35°C (for P. aeruginosa and E. coli) or 37°C (for S. aureus) for 20 h under agitation at 125 rpm. Once biofilms formed, the lids were removed from the plates and the pegs were rinsed twice with phosphate buffered saline (PBS) to remove planktonic cells. The peg-lid was then transferred to a 96-well challenge microtiter plate, each well containing 200 µl of a twofold serial dilution of each peptide in LB medium. The challenge plate was incubated at 37°C for 2 hours. Peptide activity on pre-formed biofilm was evaluated by two independent methods: (i) visual observation of bacterial growth and (ii) counting of living bacterial cells after peptide treatment. In the first case, the peg-lid was removed from the challenge plate, rinsed with PBS and used to cover a 96-well recovery microtiter plate, each well containing 200 µl LB medium. […] Colony forming units (CFU) were expressed as percentage with respect to control (peptide-untreated biofilms). […]

[2] = Binding of LPS and LTA to immobilized peptides, surface plasmon resonance; conditions: SPR, biotinylated peptides immobilized on SA flow cells; LPS/LTA 10 µg/ml in HBS-EP+ pH 7.4, injected 180 sec at 30 µl/min
Experimental: Biotinylated peptides were immobilized on SA coated flow cells. M33-L and M33-D peptides, diluted to 10 µg/ml in HBS-EP+ buffer (10 mM Hepes, 150 mM NaCl, 3.4 mM EDTA, 0.05% polysorbate 20 pH 7.4), were injected for 90 sec at a flow rate of 10 µl/min, obtaining 550 RU and 580 RU for M33-L and M33-D respectively.
LTA and LPS molecules from different species (LPS from E. coli, K. pneumonia, P. aeruginosa and LTA from S. aureus and S. faecalis, were obtained from Sigma-Aldrich: L-3012, L-4268, L9143, L2515 and L4015, respectively) were diluted in HBS-EP+ buffer at the concentration of 10 µg/ml and injected for 180 sec with a flow rate of 30 µl/min over immobilized peptides. An empty flow cell was used as reference.

K.pneumoniae 7086042 = type: cell-based, Klebsiella pneumoniae
Experimental: as §1

SMILES	MIC (S.epidermidis 6154) [µM]	survival (S. aureus USA300) [%]	MIC (K.pneumoniae ATCC 13833) [µM]	MIC (E.coli ATCC 25922) [µM]	MIC (P.aeruginosa AV 65) [µM]	MIC (E.coli W03BG0025) [µM]	MIC (S.aureus 3851) [µM]	MIC (S.aureus USA 300) [µM]	Minimum bactericidal concentration on biofilm (MBCb) [1] [µM]	binding and kinetic rates of LPS and LTA, M33-L compared with M33-D (in words) [2]	MIC (K.pneumoniae 7086042) [µM]	mortality (in words) (S. aureus USA300)
CC[C@@H](C)[C@@H](NC(=O)[C@@H](CCCCN)NC(=O)[C@H](N)CCCCN)C(=O)N[C@H](CCCNC(=N)N)C(=O)N[C@@H](C(=O)N[C@H](CCCNC(=N)N)C(=O)N[C@H](CC(C)C)C(=O)N[C@H](CO)C(=O)N[C@H](C)C(=O)NCCCC[C@H](NC(=O)[C@@H](C)NC(=O)[C@@H](CO)NC(=O)[C@@H](CC(C)C)NC(=O)[C@@H](CCCNC(=N)N)NC(=O)[C@H](NC(=O)[C@@H](CCCNC(=N)N)NC(=O)[C@H](NC(=O)[C@@H](CCCCN)NC(=O)[C@H](N)CCCCN)[C@H](C)CC)C(C)C)C(=O)NCCCC[C@H](NC(=O)[C@H](CCCCNC(=O)[C@@H](C)NC(=O)[C@@H](CO)NC(=O)[C@@H](CC(C)C)NC(=O)[C@@H](CCCNC(=N)N)NC(=O)[C@H](NC(=O)[C@@H](CCCNC(=N)N)NC(=O)[C@H](NC(=O)[C@@H](CCCCN)NC(=O)[C@H](N)CCCCN)[C@H](C)CC)C(C)C)NC(=O)[C@@H](C)NC(=O)[C@@H](CO)NC(=O)[C@@H](CC(C)C)NC(=O)[C@@H](CCCNC(=N)N)NC(=O)[C@H](NC(=O)[C@@H](CCCNC(=N)N)NC(=O)[C@H](NC(=O)[C@@H](CCCCN)NC(=O)[C@H](N)CCCCN)[C@H](C)CC)C(C)C)C(=O)NCCC(=O)O)C(C)C [M33-D] (I: H-[dK][dK][dI][dR][dV][dR][dL][dS][dA]KK[βAla]-OH / II: H-[dK][dK][dI][dR][dV][dR][dL][dS][dA]K / III: H-[dK][dK][dI][dR][dV][dR][dL][dS][dA] / IV: H-[dK][dK][dI][dR][dV][dR][dL][dS][dA]; amide I:10-IV:C, I:11-II:C, II:10-III:C; N-terminus assumed)	0.7 (≈ 3.28 µg/mL)	100	3 (≈ 14 µg/mL)	3 (≈ 14 µg/mL)	3 (≈ 14 µg/mL)	3 (≈ 14 µg/mL)	0.7 (≈ 3.28 µg/mL)	1.5 (≈ 7.02 µg/mL)	6 (≈ 28.1 µg/mL)	No significant difference in binding or kinetic rates	6 (≈ 28.1 µg/mL)	
CC[C@H](C)[C@H](NC(=O)[C@H](CCCCN)NC(=O)[C@@H](N)CCCCN)C(=O)N[C@@H](CCCNC(=N)N)C(=O)N[C@H](C(=O)N[C@@H](CCCNC(=N)N)C(=O)N[C@@H](CC(C)C)C(=O)N[C@@H](CO)C(=O)N[C@@H](C)C(=O)NCCCC[C@H](NC(=O)[C@H](C)NC(=O)[C@H](CO)NC(=O)[C@H](CC(C)C)NC(=O)[C@H](CCCNC(=N)N)NC(=O)[C@@H](NC(=O)[C@H](CCCNC(=N)N)NC(=O)[C@@H](NC(=O)[C@H](CCCCN)NC(=O)[C@@H](N)CCCCN)[C@@H](C)CC)C(C)C)C(=O)NCCCC[C@H](NC(=O)[C@H](CCCCNC(=O)[C@H](C)NC(=O)[C@H](CO)NC(=O)[C@H](CC(C)C)NC(=O)[C@H](CCCNC(=N)N)NC(=O)[C@@H](NC(=O)[C@H](CCCNC(=N)N)NC(=O)[C@@H](NC(=O)[C@H](CCCCN)NC(=O)[C@@H](N)CCCCN)[C@@H](C)CC)C(C)C)NC(=O)[C@H](C)NC(=O)[C@H](CO)NC(=O)[C@H](CC(C)C)NC(=O)[C@H](CCCNC(=N)N)NC(=O)[C@@H](NC(=O)[C@H](CCCNC(=N)N)NC(=O)[C@@H](NC(=O)[C@H](CCCCN)NC(=O)[C@@H](N)CCCCN)[C@@H](C)CC)C(C)C)C(=O)NCCC(=O)O)C(C)C [M33-L] (I: H-KKIRVRLSAKK[βAla]-OH / II: H-KKIRVRLSAK / III: H-KKIRVRLSA / IV: H-KKIRVRLSA; amide I:10-IV:C, I:11-II:C, II:10-III:C; N-terminus assumed)	3 (≈ 14 µg/mL)	0	1.5 (≈ 7.02 µg/mL)	3 (≈ 14 µg/mL)	3 (≈ 14 µg/mL)	0.7 (≈ 3.28 µg/mL)	12 (≈ 56.2 µg/mL)	6 (≈ 28.1 µg/mL)	6 (≈ 28.1 µg/mL)	No significant difference in binding or kinetic rates	3 (≈ 14 µg/mL)	mortality overlapping that of controls
